Measured values taken from patent US10889554B2, “Excimer forming compounds” (THE GOVERNING COUNCIL OF THE UNIVERSITY OF TORONTO, priority 2013, dated 2021).

Columns and labels:
[1] = target: T1, β-casein (Bos taurus, UniProt P02666); experiment: On-gel detection of proximally phosphorylated protein using GaCl3 complexes; assay type: binding
T1 construct: purchased Sigma Aldrich C6905-250MG
T1 sequence (P02666 16-224): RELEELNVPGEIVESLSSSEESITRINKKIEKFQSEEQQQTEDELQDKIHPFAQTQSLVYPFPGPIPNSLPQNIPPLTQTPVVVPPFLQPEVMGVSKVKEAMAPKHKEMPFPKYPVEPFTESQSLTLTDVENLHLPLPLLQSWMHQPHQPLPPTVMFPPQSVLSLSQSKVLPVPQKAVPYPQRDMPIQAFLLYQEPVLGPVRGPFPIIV
Experimental: (§1) Compound 8 was dissolved in 50 mM NaOAc buffer, pH 4.5, 50 mM NaCl, 10% DMSO and combined with 80, 160 or and 240 μM GaCl3 solutions. Each gel contained 4 lanes with equal amounts of BSA, ovalbumin (Ova), β-casein (β-cas) and lysozyme (Lyso) in each lane (left to right: 1, 0.5, 0.25 and 0.125 μg per protein per lane) (see FIG. 37). Gels were stained for 1 h with the sensor solution. Gels were first de-stained with 50 mM NaOAc buffer pH 4.5 for 2 h and then with 50 mM NaOAc buffer pH 4.0 20% acetonitrile for 40 h.
(§2) Compound 8 was dissolved in 100 mM NaOAc buffer, pH 4.5, 150 mM NaCl, 20% propylene glycol and combined with 10 and 15 μM GaCl3 solutions. Each gel contained 4 lanes with equal amounts of BSA, ovalbumin (Ova), β-casein (β-cas) and lysozyme (Lyso) in each lane (FIG. 40) left to right: 1, 0.5, 0.25 and 0.125 μg per protein per lane). Gels were stained for 1.5 h with the sensor solution. Destaining was performed for variable time (specified at the top) with 50 mM NaOAc, pH 4.0, 20% acetonitrile. Gels were rinsed with MiliQ water for 5 min prior to imaging. Images were acquired using ChemiDoc MP, using a 530 nm emission filter and UV trans excitation.
as §1, with “Compound 2” for “Compound 8”, “lane) (FIG. 42).” for “lane) (see FIG. 37).”, “h. […] However with the increased destaining time the intensity of β-casein band relative to other proteins was increasing, resulting in a 6.7-fold higher intensity over the distally phosphorylated protein ovalbumin. Lane containing 1 μg of each protein was analyzed (FIG. 43).” for “h.”
as §2, with “2” for “8”, “45)” for “40)”, “acetonitrile (see FIGS. 45 and 46).” for “acetonitrile.”

[2] = test system: pYpY peptide; experiment: Detection of pY and pYpY peptides with non-pyrene excimer forming derivatives; assay type: binding; conditions: for excimer emission peak in response to pYpY peptide in fluorescence emission spectra / peak when pYpY spectra are divided by those of pY or buffer control: 250 μM Zn^2+ triflate complexes, 125 μM peptide, irradiated at 290 nm; for detection limit of pYpY peptide, selectively over pY peptide: 250 μM compound in complex with Zn^2+ (triflate salt), pH 7.5 50 mM HEPES, 10% DMSO
Experimental: Non-pyrene excimer forming derivatives (compounds 4-7) were synthesized and assessed for their ability to sense proximally phosphorylated peptides. All experiments for these derivatives were performed in pH 7.5 50 mM HEPES, 10% DMSO. 125 μM pY and pYpY peptides were combined with 250 μM of compounds 4, 5 and 6 (Zn^2+ triflate complexes), or buffer as background control, and the solution was irradiated at 290 nm and fluorescence emission scan was recorded. […] These peaks indicate that the spike in response to the addition of pYpY corresponds to excimer formation, since 420 nm region corresponds to a roughly 100 nm shift from the monomer emission maximum (approximately at 330 nm).
pY and pYpY peptides were titrated into 250 μM of compound 4 in complex with Zn^2+ (triflate salt) in pH 7.5 50 mM HEPES, 10% DMSO. […] Time-resolved experiments were also conducted, where the delay time prior to acquisition of fluorescence was varied (0, 5, 10, and 15 μs; FIG. 21). In this case, the concentration of compound 4 in complex with Zn^2+ (triflate salt) was constant at 40 μM.
pY and pYpY peptides were also titrated into 250 μM of compound 5 in complex with Zn^2+ (triflate salt) in pH 7.5, 50 mM HEPES, 10% DMSO. The fluorescence emission spectra (FIG. 23) indicate a pYpY-selective enhancement in the excimer region of the fluorophore.

[3] = test system: proximally phosphorylated peptides; experiment: Detection of proximally phosphorylated peptides in aqueous solution (384 well plate, emission 476 nm); assay type: binding; conditions: Zn^2+ (triflate salt) complexes; pH 7.5, 50 mM HEPES, 25 mM NaCl, 10% propylene glycol
Experimental: In one example 40 μM of compound 1 pre-metallated with zinc(II) triflate (referred to as “Zn^2+ pre-metallation” in FIG. 13; procedure described in example) was titrated with 80-0.04 μM of pY and pYpY peptides in 50 mM HEPES pH 7.5, 5% DMSO. In another example, 40 μM of compound 1 was dissolved in 50 mM HEPES pH 7.5, 5% DMSO, which contained 40 μM of zinc(II) triflate (referred to as “in situ Zn^2+ metallation” in FIG. 13) and was titrated with 80-0.04 μM of pY and pYpY peptides. Fluorescence measurements were performed as described in Example 2.
(§3) Various conditions for the detection of proximally phosphorylated peptides and proteins in aqueous solution are shown in Table 1. For the screens, analytes (peptides) were dissolved in a specific buffer at various concentrations (normally 100 μM to 40 nM), and combined with 40 μM of compound 1 in complex with Zn^2+ (triflate salt) dissolved in the same buffer on a 384 well flat bottom black plate. The mixture was incubated for 20 minutes and fluorescence emission intensity at 476 nm (10-20 nm bandwidth) was measured using a Tecan M1000 microplate reader, upon excitation at 350 nm (5 nm bandwidth) at 400 Hz. The different conditions tested were assessed based on the ratios of signal intensity of positive to negative control analytes and signal intensity in general.
Peptides containing two phosphotyrosine residues, spaced by 2-5 alanine residues, were titrated into 40 μM solution of compound 1 in complex with Zn^2+ (triflate salt) (pH 7.5 50 mM HEPES, 10% propylene, 25 mM NaCl) from 80 μM to 40 nM (FIG. 16). Y-axis is Δ Fluorescence Intensity as defined by the formula in example 2.
Using the same methods as described in Example 6, Zn^2+ (triflate salt) complexes of compounds 1, compound 9, compound 15, compound 14 were tested in pH 7.5, 50 mM HEPES, 25 mM NaCl, 10% propylene glycol.
Using the same methods as described in Example 6, Zn^2+ (triflate salt) complexes of compound 1 and compound 12 were tested in pH 7.5, 50 mM HEPES, 5% DMSO.

[4] = test system: proximally phosphorylated proteins (α-casein, β-casein and D-α-casein); experiment: In-solution detection of proteins; assay type: binding, Bos taurus; conditions: Zn^2+ (triflate salt) complexes; pH 7.5, 50 mM HEPES, 75 mM NaCl, 20% DMSO
Description: Non-phosphorylated (BSA and lysozyme) and distally phosphorylated negative control proteins (ovalbumin) were used in detection methods for in-solution, on gel and on blot applications. Dephosphorylated α-casein (D-α-casein), β-casein and α-casein served as proximally phosphorylated positive controls (see Table 2). The phosphosites presented in Table 2 were obtained from the PhosphoSitePlus database or a UniProt database.
as §3, with “proteins” for “peptides”, “3. Proteins” for “1. For the screens, analytes (peptides)”, “a” for “a specific”, “general. Among the parameters assessed in this study and using these specific control proteins, the following conditions were selected for proteins studies: pH 5.5 50 mM NaOAc, 50 mM NaCl, 5% DMSO (see FIG. 27). […] Depending on the number of proximally di-phosphorylated sites, lower detection limits could be achieved by using lower concentration of a sensor.” for “general.”
Using same methods as described in Example 1.1c, Zn^2+ (triflate salt) complexes of compounds 1 (top left), compound 9 (top right), compound 15 (middle left), and compound 14 (middle right) were tested in pH 7.5, 50 mM HEPES, 75 mM NaCl, 20% DMSO (see FIG. 28).
Using same methods as described in Example 14, 40 and 20 μM of Zn^2+ (triflate salt) complexes of compound 1 (top) and compound 12 (bottom) (FIG. 29), were tested in pH 7.5, 50 mM HEPES, 5% DMSO.
Using same methods as described above, 60, 40, 20 and 10 μM of Zn^2+ (triflate salt) complexed with compound 12 (FIG. 30), were titrated with 80-0.04 μM of proteins in pH 7.5, 50 mM HEPES, 5% DMSO.

melting point	SMILES	excimer emission peak in response to pYpY peptide in fluorescence emission spectra [2]	efficiency at detecting the proximally phosphorylated proteins [4]	other results
83 to 86 °C	O=C(CCCc1ccc2ccc3cccc4ccc1c2c34)N1CCNCCNCCNCC1			
	O=C(O)CN(CC(=O)O)c1ccccc1OCCOc1cc(NC(=O)c2ccc3ccc4cccc5ccc2c3c45)ccc1N(CC(=O)O)CC(=O)O [compound 8, 2,2′-((2-(2-(2-(bis(carboxymethyl)amino)-5-(pyrene-1-carboxamido)phenoxy)ethoxy)phenyl)azanediyl)diacetic acid]			selectivity for β-casein after 2 h destaining ([1]; 80 μM compound, 1:1 GaCl3, stained 1 h): improved; β-casein over distally phosphorylated ovalbumin ([1]; 80 μM compound, 1:1 GaCl3, stained 1 h, 40 h destaining, 1 μg per protein): 4.5 fold; selectivity for β-casein with more than 1:1 equivalent of compound:GaCl3 ([1]; 50 mM NaOAc pH 4.5, 50 mM NaCl, 10% DMSO, 160 or 240 μM GaCl3): did not result in good selectivity; selective staining for β-casein, no destaining ([1]; 100 mM NaOAc pH 4.5, 150 mM NaCl, 20% propylene glycol, 1:1 and 1:1.5 compound:GaCl3, stained 1.5 h): did not result in selective staining; staining of β-casein band following 16 h destain ([1]; 100 mM NaOAc pH 4.5, 150 mM NaCl, 20% propylene glycol, destain 50 mM NaOAc, pH 4.0, 20% acetonitrile): most prominently stained band
	c1ccc2c(CN3CCNCCNCCNCC3)cccc2c1 [compound 4, 1-(naphthalen-1-ylmethyl)-1,4,7,10-tetraazacyclododecane]	No distinct peak		peak when pYpY spectra are divided by those of pY or buffer control [2]: distinct peak in the 420 nm region; detection limit of pYpY peptide, selectively over pY peptide [2]: single-digit; signal selectivity towards pYpY with 15 μs delay time ([2]; time-resolved, 40 μM compound in complex with Zn^2+): retained
	c1ccc2cc(CN3CCNCCNCCNCC3)ccc2c1 [compound 5, 1-(naphthalen-2-ylmethyl)-1,4,7,10-tetraazacyclododecane]	No distinct peak		peak when pYpY spectra are divided by those of pY or buffer control [2]: distinct peak in the 420 nm region; detection limit of pYpY peptide, selectively over pY peptide [2]: single-digit
	c1cc2ccc3ccc(CCCCN4CCNCCNCCNCC4)c4ccc(c1)c2c34 [compound 9, 1-(4-(pyren-1-yl)butyl)-1,4,7,10-tetraazacyclododecane]		comparable efficiency	sensitivity for peptides in which the two phosphorylated tyrosine residues are more spaced out, vs compound 1 [3]: increased
55 to 60 °C	c1cc2ccc3ccc(CCCCOCc4cc(CN5CCNCCNCCNCC5)cc(CN5CCNCCNCCNCC5)c4)c4ccc(c1)c2c34			
75 to 79 °C	O=C(Cc1ccc2ccc3cccc4ccc1c2c34)N1CCNCCNCCNCC1			
	c1ccc2c(c1)cc(CN1CCNCCNCCNCC1)c1ccccc12 [compound 6, 1-(phenanthren-9-ylmethyl)-1,4,7,10-tetraazacyclododecane]	No distinct peak		

SMILES	melting point	excimer emission peak in response to pYpY peptide in fluorescence emission spectra [2]	efficiency at detecting the proximally phosphorylated proteins [4]	other results
c1ccc(CN(CCCCc2ccc3ccc4cccc5ccc2c3c45)Cc2ccccn2)nc1 [compound 15, 4-(pyren-1-yl)-N,N-bis(pyridin-2-ylmethyl)butan-1-amine]	61 to 62 °C		comparable efficiency	
c1ccc(CN(Cc2ccccn2)Cc2ccc3ccc4cccc5ccc2c3c45)nc1 [compound 14, 1-(pyren-1-yl)-N,N-bis(pyridin-2-ylmethyl)methanamine]	108 to 112 °C		comparable efficiency	
